Laboratory results reported in patent publication US7407752B2, “Oligonucleotide complexes for use as anti-viral therapeutics” (priority 2003, dated 2008).
Where “and” joins values, the source holds several entries; their conditions need not be identical. Equal values may be shown once.

What was measured:
HSV-1 = HSV-1 plaque reduction on Vero cells after incubation with TFO and ultraviolet-A radiation; settings: for viral titer as percent of the unirradiated virus only control: 1 μM TFO
Description: Viral titers were determined by plaque counts on Vero cell monolayers.
3000 PFU/ml of HSV-1 were incubated with 1 μM TFO-3 (SEQ ID 2) at room temperature, N=5 replications per group. Viral killing (as measured by plaque-reduction) was effected by exposing the mixture to ultraviolet-A radiation for 0, 20 and 40 minutes at room temperature. HSV-1 titers were determined by plaque assay on Vero cells. […] The results were calculated as a percent of the unirradiated (0 min.) “virus only” control titers±SEM. Statistical comparisons were made between the “virus only” and “virus+TFO-3 (SEQ ID 2)” groups at each time point using an unpaired two-tailed Student's T-Test.
3000 PFU/ml of HSV-1 was incubated with 1 μM TFO-3 (SEQ ID 2) or a (scrambled) control oligonucleotide. Viral killing was affected by exposing the mixture to ultraviolet-A radiation for 40 min. Results are expressed as percent of the “virus only” control titers±SEM. Statistical comparisons were made to the “virus only” group using the two-tailed Student's T-Test.
HSV-1 was incubated with 1 μM TFO-3 (SEQ ID 2) with and without exposure to ultraviolet-A radiation for 40 minutes at room temperature. Results are expressed as mean viral titers±standard errors. Statistical comparisons were made using the two-tailed Student's T-Test.
All the groups were exposed to ultraviolet-A radiation for 40 minutes at room temperature. Results are expressed as mean viral titers ±standard error of the mean. Statistical comparisons were made using the two-tailed Mann-Whitney test for non-parametric data.

[1] = intravenous; cited from earlier work
[2] = tested on: parent (control) reporter construct pGL3; experiment: Luciferase reporter transcription inhibition, parent construct pGL3 in HEK-293; assay type: cell-based, human; settings: HEK-293, 1 or 10 μM TFO, 24 hours, construct lacking HSV-1 target sequence
[3] = tested on: HSV-1 Target-3 reporter construct C2A; experiment: Luciferase reporter transcription inhibition, construct C2A in HEK-293; assay type: cell-based, human; settings: HEK-293, 1 or 10 μM TFO, 24 hours
TG neurons [4] = experiment: Ex vivo delivery of TFO-3 to latently infected mouse TG; settings: 42 micromolar, 1.5 hrs ex vivo
Description: Ex vivo delivery of TFOs was then performed by incubating latently infected mouse TG ex vivo for 1.5 hrs in a 42 micromolar solution of TFO-3.

TG neurons [5] = experiment: Movement of 32P-labeled TFO-3 into rat TG neuron cultures; assay type: cell-based
[6] = tested on: HSV-1 LAT target sequence duplex; experiment: Triplex formation in vitro (native polyacrylamide gel); assay type: binding
Description: The target sequence bound by TFO-3 (SEQ ID 2) yielded a relatively clean duplex when end-labeled with ^32P and allowed to anneal to its purine complement. One fmole […] [The absolute amount of target DNA was one femtomole=1×10^−15 moles placed in solution to a concentration of 1.0 nM=1.0 nanomoles/liter] of this duplex was then incubated at 37 degrees C. with increasing concentrations of the […] in a binding buffer containing 10 mM Tris, pH 7.5, 1 mM spermine, 20 mM KCl, and 10% sucrose, according to a published protocol. The DNA complexes—single-strand, double-strand, and triplex—were separated in a native polyacrylamide gel. Triplex DNA complex formation was detected at a triplex:duplex ratio of 10:1. Triplex formation was virtually complete at a triplex:duplex ratio of 100:1, corresponding to a triplex oligonucleotide concentration of 100 nM, consistent with other reports in the literature and below that believed to be achievable in vivo.

[7] = Systemic (intraperitoneal) delivery of Cy5-TFO-3 to mouse TG, fluorescence imaging; assay type: in vivo, Balb/c mice; settings: 167 mcg intraperitoneal, 6 or 24 hours after injection
Description: Cy5-labeled TFO-3 (SEQ ID 2) was then synthesized and HPLC purified. 167 mcg of Cy5-TFO-3 (SEQ ID 2) was then systemically administered via an intraperitoneal injection into uninfected and latently infected Balb/c mice. The animals were sacrificed and dissected 6 or 24 hours after injection and the TG's imaged under a red laser light source (680 nm). An uninjected, uninfected mouse was also imaged as a control for autofluorescence (nil). Fluorescence of Cy5 was detectable in the TG's of Cy5-labeled TFO-3 (SEQ ID 2) treated mice.

[8] = Example 9, 1 μM, UVA 40 minutes
[9] = 0.5 nM starting concentration, +20 ng/ml NGF

## TFO-1: purine motif triplex-forming oligonucleotide binding a target site in the HSV-1 LAT domain, SEQ ID 1 (GAAGAGGGGGGGGGGAAGAAG; DNA, backbone not given here)
HSV-1; [8]
  antiviral effect: no measurable antiviral effect

## Nc1nc2c(ncn2COCCO)c(=O)[nH]1 [Acyclovir]
[1]
  steady-state trough concentration: 2 μg/ml and 8 μM

## TFO-3: purine motif triplex-forming oligonucleotide binding a target site in the HSV-1 LAT domain, SEQ ID 2 (GGGAGGAGGGAGGGAAGGAGGGGG; further chemistry not given here)
[2]
  luciferase production: did not inhibit
[3]
  luciferase production: significantly inhibited
TG neurons [4]
  fluorescence in TG neurons: Intense red fluorescence
TG neurons [5]; [9]
  average cellular oligonucleotide (32P) concentration: 95 nM
  average oligonucleotide (32P) concentration in the supernatants: 0.44 nM
TG neurons [5]; 0.5 nM, 2, 6 or 24 hours
  uptake into the neurons: progressively taken up
HSV-1; UVA 0 min
  viral titer as percent of the unirradiated virus only control: approximately 80%
HSV-1; UVA 20 min
  viral titer as percent of the unirradiated virus only control: approximately 50%
HSV-1; UVA 40 min
  viral titer as percent of the unirradiated virus only control: ~30%
HSV-1; Example 7, strain 17 syn+, 1 μM, UVA 40 min
  percent of virus only control viral titer: approximately 20%
HSV-1; Example 8, 1 μM, UVA 40 minutes
  viral killing (plaque-reduction) added to that of UVA alone: 40%
HSV-1; [8]
  reduction of viral titers: 45%
[6]; 37 degrees C., target duplex 1.0 nM
  TFO concentration at which triplex formation is virtually complete: 100 nM
[6]; HSV-1 LAT target
  TFO concentration at which triplex formation begins: 10 nM

## Cy5-labeled TFO-3: TFO-3 (SEQ ID 2) labeled with Cy5, HPLC purified (GGGAGGAGGGAGGGAAGGAGGGGG; DNA, backbone not given here; Cy5 label attached, triplex-forming oligonucleotide, further chemistry not fully specified)
[7]
  fluorescence of Cy5 in the TG's: detectable
